# Assay results reported in publication PMC10878397, “Development of Potent Dual BET/HDAC Inhibitors via Pharmacophore Merging and Structure-Guided Optimization” (ACS Chemical Biology, 2024).
# Read-outs that look alike come from different tables or passages of the source.
# Legend:
# ATAD2A = target: T1, ATAD2A (Homo sapiens, UniProt Q6PL18); experiment: DSF bromodomain selectivity panel; format: binding; details: 10 μM compound
# T1 construct: purchased in-house (SGC Frankfurt recombinant bromodomain DSF panel)
# Description: (§1) The effects of inhibitor binding on the apparent melting temperature of recombinant bromodomains were determined by DSF in a 96-well plate (Starlab) at a protein concentration of 2 μM with 10 μΜ compound in buffer containing 25 mM HEPES, pH 7.5, 150 mM NaCl, and 0.5 mM TCEP. […] Protein unfolding profiles were recorded using an MX3005P real-time qPCR instrument (Agilent; excitation/emission filters = 492/610 nm) while increasing the temperature from 25 to 95 °C at a heating rate of 3 °C/min. Tm values were calculated after fitting the fluorescence curves to the Boltzmann equation. Differences in melting temperature upon compound binding are given as ΔTm = Tm (protein with inhibitor) – Tm (protein with DMSO control). Measurements were performed in triplicates.
# BAZ2B = target: T2, BAZ2B (Homo sapiens, UniProt Q9UIF8); experiment: DSF bromodomain selectivity panel; format: binding; details: 10 μM compound
# T2 construct: purchased in-house (SGC Frankfurt recombinant bromodomain DSF panel)
# T2 sequence (Q9UIF8 whole entry): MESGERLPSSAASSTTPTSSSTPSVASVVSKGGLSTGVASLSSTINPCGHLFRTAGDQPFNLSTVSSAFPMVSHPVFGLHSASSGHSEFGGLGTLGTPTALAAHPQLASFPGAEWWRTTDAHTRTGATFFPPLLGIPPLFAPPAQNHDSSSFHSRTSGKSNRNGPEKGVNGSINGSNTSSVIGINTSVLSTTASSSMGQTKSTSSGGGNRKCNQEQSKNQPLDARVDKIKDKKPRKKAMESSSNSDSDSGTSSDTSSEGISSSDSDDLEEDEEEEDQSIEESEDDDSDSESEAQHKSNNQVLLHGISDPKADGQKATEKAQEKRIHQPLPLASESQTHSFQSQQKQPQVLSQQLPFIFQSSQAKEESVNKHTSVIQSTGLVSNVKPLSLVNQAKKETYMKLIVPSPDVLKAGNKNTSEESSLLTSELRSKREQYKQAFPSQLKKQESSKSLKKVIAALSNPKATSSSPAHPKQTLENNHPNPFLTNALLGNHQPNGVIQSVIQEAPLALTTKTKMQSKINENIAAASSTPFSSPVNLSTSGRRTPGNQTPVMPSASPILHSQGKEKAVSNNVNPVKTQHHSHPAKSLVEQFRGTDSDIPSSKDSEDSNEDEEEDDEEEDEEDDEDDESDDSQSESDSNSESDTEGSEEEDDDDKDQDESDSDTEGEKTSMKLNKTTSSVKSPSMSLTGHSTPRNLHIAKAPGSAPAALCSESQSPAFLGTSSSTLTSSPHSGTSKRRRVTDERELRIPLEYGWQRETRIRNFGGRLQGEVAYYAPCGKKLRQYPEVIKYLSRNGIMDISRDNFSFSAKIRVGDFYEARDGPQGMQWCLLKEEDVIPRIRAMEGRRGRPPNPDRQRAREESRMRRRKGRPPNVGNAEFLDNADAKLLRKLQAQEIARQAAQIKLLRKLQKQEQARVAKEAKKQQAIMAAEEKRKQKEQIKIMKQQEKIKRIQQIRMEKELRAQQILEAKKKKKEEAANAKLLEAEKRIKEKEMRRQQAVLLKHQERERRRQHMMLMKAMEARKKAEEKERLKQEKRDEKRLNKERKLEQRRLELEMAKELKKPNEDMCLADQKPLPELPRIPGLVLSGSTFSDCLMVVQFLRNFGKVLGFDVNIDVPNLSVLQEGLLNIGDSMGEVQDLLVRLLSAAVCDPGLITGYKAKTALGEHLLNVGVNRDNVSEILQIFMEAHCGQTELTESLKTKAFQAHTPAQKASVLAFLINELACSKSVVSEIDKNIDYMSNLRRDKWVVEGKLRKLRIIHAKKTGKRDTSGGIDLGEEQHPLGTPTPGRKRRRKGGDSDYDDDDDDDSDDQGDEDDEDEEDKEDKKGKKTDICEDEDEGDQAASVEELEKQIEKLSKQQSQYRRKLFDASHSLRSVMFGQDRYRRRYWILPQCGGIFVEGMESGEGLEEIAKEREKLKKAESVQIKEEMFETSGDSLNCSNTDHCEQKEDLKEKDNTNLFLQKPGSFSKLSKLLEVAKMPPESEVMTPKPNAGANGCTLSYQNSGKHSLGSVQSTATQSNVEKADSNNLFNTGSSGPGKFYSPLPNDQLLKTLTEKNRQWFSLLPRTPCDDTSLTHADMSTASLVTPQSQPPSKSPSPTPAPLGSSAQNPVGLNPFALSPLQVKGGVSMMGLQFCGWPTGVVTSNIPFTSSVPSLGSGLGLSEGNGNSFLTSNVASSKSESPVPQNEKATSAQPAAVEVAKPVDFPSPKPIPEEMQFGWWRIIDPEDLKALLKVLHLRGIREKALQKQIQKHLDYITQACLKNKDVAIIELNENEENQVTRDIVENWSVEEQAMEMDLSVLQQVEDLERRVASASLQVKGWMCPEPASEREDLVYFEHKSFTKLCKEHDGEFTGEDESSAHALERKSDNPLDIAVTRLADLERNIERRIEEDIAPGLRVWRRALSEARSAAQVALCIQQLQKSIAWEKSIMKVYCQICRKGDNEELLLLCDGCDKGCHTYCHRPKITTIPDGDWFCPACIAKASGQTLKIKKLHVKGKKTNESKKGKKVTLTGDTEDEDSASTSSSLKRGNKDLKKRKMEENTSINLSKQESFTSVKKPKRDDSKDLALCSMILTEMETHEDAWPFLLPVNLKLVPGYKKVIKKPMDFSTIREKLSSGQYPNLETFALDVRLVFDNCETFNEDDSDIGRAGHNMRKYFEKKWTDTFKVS
# Description: as §1
# BRD2 (2) = target: T3, BRD2 (2) (Homo sapiens, UniProt P25440); experiment: DSF bromodomain selectivity panel; format: binding; details: 10 μM compound
# T3 construct: BRD2 (2); purchased in-house (SGC Frankfurt recombinant bromodomain DSF panel)
# T3 sequence (P25440 344-455 limits assumed): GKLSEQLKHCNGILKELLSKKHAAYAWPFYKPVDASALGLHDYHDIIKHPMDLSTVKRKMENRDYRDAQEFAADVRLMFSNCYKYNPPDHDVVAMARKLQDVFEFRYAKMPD
# Description: as §1
# BRD7 = target: T4, BRD7 (Homo sapiens, UniProt Q9NPI1); experiment: DSF bromodomain selectivity panel; format: binding; details: 10 μM compound
# T4 construct: purchased in-house (SGC Frankfurt recombinant bromodomain DSF panel)
# Description: as §1
# BRD9 = target: T5, BRD9 (Homo sapiens, UniProt Q9H8M2); experiment: DSF bromodomain selectivity panel; format: binding; details: 10 μM compound
# T5 construct: purchased in-house (SGC Frankfurt recombinant bromodomain DSF panel)
# Description: as §1
# CREBBPA = target: T6, CREBBPA (Homo sapiens, UniProt Q92793); experiment: DSF bromodomain selectivity panel; format: binding; details: 10 μM compound
# T6 construct: purchased in-house (SGC Frankfurt recombinant bromodomain DSF panel)
# Description: as §1
# EP300A = target: T7, EP300A (Homo sapiens, UniProt Q09472); experiment: DSF bromodomain selectivity panel; format: binding; details: 10 μM compound
# T7 construct: purchased in-house (SGC Frankfurt recombinant bromodomain DSF panel)
# Description: as §1
# PB1A(3) = target: T8, PB1A(3) (Homo sapiens, UniProt Q86U86); experiment: DSF bromodomain selectivity panel; format: binding; details: 10 μM compound
# T8 construct: PB1A(3); purchased in-house (SGC Frankfurt recombinant bromodomain DSF panel)
# T8 sequence (Q86U86 388-494 limits assumed): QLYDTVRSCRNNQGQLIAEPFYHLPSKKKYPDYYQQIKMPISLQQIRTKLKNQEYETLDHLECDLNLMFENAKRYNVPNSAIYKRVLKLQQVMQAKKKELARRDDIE
# Description: as §1
# PB1A(4) = target: T9, PB1A(4) (Homo sapiens, UniProt Q86U86); experiment: DSF bromodomain selectivity panel; format: binding; details: 10 μM compound
# T9 construct: PB1A(4); purchased in-house (SGC Frankfurt recombinant bromodomain DSF panel)
# T9 sequence (Q86U86 496-637 limits assumed): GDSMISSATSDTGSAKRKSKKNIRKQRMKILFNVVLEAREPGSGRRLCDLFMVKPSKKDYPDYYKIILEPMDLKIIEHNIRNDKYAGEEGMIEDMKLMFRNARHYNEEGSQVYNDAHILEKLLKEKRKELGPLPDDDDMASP
# Description: as §1
# PB1A(5) = target: T10, PB1A(5) (Homo sapiens, UniProt Q86U86); experiment: DSF bromodomain selectivity panel; format: binding; details: 10 μM compound
# T10 construct: PB1A(5); purchased in-house (SGC Frankfurt recombinant bromodomain DSF panel)
# T10 sequence (Q86U86 645-766 limits assumed): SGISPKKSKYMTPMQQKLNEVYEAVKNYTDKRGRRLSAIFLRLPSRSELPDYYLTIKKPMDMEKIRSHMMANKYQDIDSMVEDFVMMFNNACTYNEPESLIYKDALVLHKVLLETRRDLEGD
# Description: as §1
# PCAFA = target: T11, PCAFA (Homo sapiens, UniProt Q92831); experiment: DSF bromodomain selectivity panel; format: binding; details: 10 μM compound
# T11 construct: purchased in-house (SGC Frankfurt recombinant bromodomain DSF panel)
# T11 sequence (Q92831 whole entry): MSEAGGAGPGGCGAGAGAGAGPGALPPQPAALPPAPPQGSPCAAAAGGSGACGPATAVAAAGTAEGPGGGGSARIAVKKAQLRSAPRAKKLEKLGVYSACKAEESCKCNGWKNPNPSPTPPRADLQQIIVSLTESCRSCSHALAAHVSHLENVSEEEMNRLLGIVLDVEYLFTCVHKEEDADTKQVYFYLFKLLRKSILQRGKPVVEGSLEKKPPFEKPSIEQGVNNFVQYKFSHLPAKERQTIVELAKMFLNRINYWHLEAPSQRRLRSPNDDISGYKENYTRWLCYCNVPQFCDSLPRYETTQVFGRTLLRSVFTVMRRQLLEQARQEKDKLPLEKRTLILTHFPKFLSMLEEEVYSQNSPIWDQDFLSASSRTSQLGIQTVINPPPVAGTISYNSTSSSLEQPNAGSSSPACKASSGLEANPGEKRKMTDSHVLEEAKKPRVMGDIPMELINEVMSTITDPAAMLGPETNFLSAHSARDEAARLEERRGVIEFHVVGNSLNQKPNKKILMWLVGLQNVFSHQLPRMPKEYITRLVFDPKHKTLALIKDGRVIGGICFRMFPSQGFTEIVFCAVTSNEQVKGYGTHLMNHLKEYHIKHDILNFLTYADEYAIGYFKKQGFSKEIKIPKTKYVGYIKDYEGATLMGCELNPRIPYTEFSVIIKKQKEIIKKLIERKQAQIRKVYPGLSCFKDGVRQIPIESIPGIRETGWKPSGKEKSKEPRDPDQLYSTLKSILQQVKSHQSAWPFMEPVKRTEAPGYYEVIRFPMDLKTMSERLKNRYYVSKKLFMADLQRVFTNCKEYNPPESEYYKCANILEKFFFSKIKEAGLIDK
# Description: as §1
# SP100 = experiment: DSF bromodomain selectivity panel; format: binding; details: 10 μM compound
# Description: as §1
# TRIM24 = target: T12, TRIM24 (Homo sapiens, UniProt O15164); experiment: DSF bromodomain selectivity panel; format: binding; details: 10 μM compound, construct containing tandem PHD-BD
# T12 construct: purchased in-house (SGC Frankfurt recombinant bromodomain DSF panel)
# T12 sequence (O15164 whole entry): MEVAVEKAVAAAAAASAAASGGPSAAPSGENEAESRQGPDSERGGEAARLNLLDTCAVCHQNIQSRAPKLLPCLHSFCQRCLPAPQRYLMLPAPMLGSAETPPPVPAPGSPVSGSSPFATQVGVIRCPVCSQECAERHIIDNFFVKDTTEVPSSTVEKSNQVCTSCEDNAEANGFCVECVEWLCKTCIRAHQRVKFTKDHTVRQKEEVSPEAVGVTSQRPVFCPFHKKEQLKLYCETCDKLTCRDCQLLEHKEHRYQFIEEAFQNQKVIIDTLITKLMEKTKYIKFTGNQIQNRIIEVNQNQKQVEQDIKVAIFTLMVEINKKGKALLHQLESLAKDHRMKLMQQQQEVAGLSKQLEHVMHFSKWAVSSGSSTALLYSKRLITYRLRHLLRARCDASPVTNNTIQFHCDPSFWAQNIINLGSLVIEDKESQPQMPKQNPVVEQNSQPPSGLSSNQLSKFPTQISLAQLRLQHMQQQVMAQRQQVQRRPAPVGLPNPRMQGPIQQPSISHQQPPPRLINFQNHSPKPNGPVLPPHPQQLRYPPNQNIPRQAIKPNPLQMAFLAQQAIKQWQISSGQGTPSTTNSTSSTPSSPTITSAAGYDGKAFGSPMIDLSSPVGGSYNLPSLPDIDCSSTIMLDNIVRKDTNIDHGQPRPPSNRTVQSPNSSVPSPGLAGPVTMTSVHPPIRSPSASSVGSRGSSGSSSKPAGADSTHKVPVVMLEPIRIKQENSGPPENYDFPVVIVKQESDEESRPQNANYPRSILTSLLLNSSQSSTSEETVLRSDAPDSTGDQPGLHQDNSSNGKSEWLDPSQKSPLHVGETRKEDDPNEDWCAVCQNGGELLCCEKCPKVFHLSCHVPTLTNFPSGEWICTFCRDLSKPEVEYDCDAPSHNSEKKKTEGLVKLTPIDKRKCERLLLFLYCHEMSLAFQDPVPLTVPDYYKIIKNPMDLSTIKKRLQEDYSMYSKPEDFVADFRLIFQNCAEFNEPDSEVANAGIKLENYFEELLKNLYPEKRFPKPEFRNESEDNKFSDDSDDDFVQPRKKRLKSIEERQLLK
# Description: as §1
# TRIM28 = target: T13, TRIM28 (Homo sapiens, UniProt Q13263); experiment: DSF bromodomain selectivity panel; format: binding; details: 10 μM compound, construct containing tandem PHD-BD
# T13 construct: purchased in-house (SGC Frankfurt recombinant bromodomain DSF panel)
# Description: as §1
# WDR9A(1) = target: T14, WDR9A(1) (Homo sapiens, UniProt Q9NSI6); experiment: DSF bromodomain selectivity panel; format: binding; details: 10 μM compound
# T14 construct: WDR9A(1); purchased in-house (SGC Frankfurt recombinant bromodomain DSF panel)
# T14 sequence (Q9NSI6 1150-1280 limits assumed): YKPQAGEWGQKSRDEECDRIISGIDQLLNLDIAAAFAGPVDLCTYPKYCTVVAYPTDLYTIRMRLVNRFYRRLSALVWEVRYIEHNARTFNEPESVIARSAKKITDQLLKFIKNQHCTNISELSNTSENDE
# Description: as §1
# panel of 32 bromodomains = experiment: DSF selectivity screen, whole panel; format: binding; details: 10 μM compound
# Description: as §1
# BRD4 BD1 = BRD4 BD1 (Homo sapiens, UniProt O60885); experiment: Isothermal titration calorimetry; format: binding; design: BRD4 BD1 (residues N44-E168) for structural studies was subcloned in the pNIC28-Bsa4 vector; His6 (followed by a TEV site) (N, cleaved yes); made in house; host or cells: Escherichia coli BL21(D3)-R3-pRARE2 Rosetta; details: for ITC -TΔS / ITC Ka / ITC n (stoichiometry) / ITC ΔG / ITC ΔH / ITC ΔS / Kd: 15 °C
# Description: ITC measurements were performed using a Nano ITC microcalorimeter (TA Instruments, New Castle, Pennsylvania). For all experiments, reverse titration was performed (syringe containing the protein solution; cell containing the ligand) in ITC buffer containing 25 mM HEPES, pH 7.5, 150 mM NaCl, 0.5 mM TCEP, and 5% glycerol. All compounds were diluted from 50 mM DMSO stocks to 20 μΜ in ITC buffer, and BRD4-BD1 was diluted to 120 μΜ in a DMSO-adjusted ITC buffer. BRD4-BD1 (120 μΜ) was titrated into the compound solution (20 μΜ) with an initial injection (4 μL) followed by 29 identical injections (8 μL), at a rate of 0.5 μL/s and with 150 or 200 s intervals. All experiments were performed at 15 °C while stirring at 350 rpm. The heat of dilution was determined by independent titrations (protein into buffer) and subtracted from the experimental raw data. Data were processed using NanoAnalyze software (version 3.10.0) provided by the instrument manufacturer. The first injection was excluded from the analysis, and fitted curves were generated by applying the independent model (single binding site) to the raw data. Complete thermodynamic data analysis can be found in Table S2.
# [1] = system: MYC mRNA in NMC HCC2429 cells; experiment: Quantitative RT-PCR of oncogenic drivers; format: cell-based; details: HCC2429, 6 h, 1 μΜ compound
# Description: (§2) Total RNA was extracted from cell culture using the Maxwell RSC simply RNA Cells Kit (Promega) according to the manufacturer’s protocol. cDNA was synthesized using PrimeScript Reverse Transcriptase (TakaRa) and amplified using homemade PCR master mix. The amplicon was detected by EvaGreen Dye using a LightCycler 480 instrument (Roche). PCR conditions were 5 min at 95 °C, followed by 45 cycles of 95 °C for 10 s, 59 °C for 10 s, and 72 °C for 20 s. The relative gene expression levels were normalized to GUSB and calculated using the 2^–ΔΔC^t method.
# [2] = system: TP63 mRNA in NMC HCC2429 cells; experiment: Quantitative RT-PCR of oncogenic drivers; format: cell-based; details: HCC2429, 6 h, 1 μΜ compound
# Description: as §2
# [3] = 95% confidence level, read-out: ITC Kd
Compound,Mean Tm ATAD2A (ATAD2A) [K],Mean Tm BAZ2B (BAZ2B) [K],Mean Tm BRD2 (2) (BRD2 (2)) [K],Mean Tm BRD7 (BRD7) [K],Mean Tm BRD9 (BRD9) [K],Mean Tm CREBBPA (CREBBPA) [K],Mean Tm EP300A (EP300A) [K],Mean Tm PB1A(3) (PB1A(3)) [K],Mean Tm PB1A(4) (PB1A(4)) [K],Mean Tm PB1A(5) (PB1A(5)) [K],Mean Tm PCAFA (PCAFA) [K],Mean Tm SP100 (SP100) [K],Mean Tm TRIM24 (TRIM24) [K],Mean Tm TRIM28 (TRIM28) [K],Mean Tm WDR9A(1) (WDR9A(1)) [K],bromodomain selectivity in DSF screen (panel of 32 bromodomains),ITC -TΔS (BRD4 BD1) [kcal/mol],ITC Ka (BRD4 BD1) [Mˉ¹],ITC n (stoichiometry) (BRD4 BD1),ITC ΔG (BRD4 BD1) [kcal/mol],other results
Cn1cc(-c2ccc(C(=O)Nc3ccccc3N)cc2)c2cc[nH]c2c1=O [NB462],0.4 ± 0.2,0.5 ± 0.0,5.3 ± 0.1,5.6 ± 0.3,5.2 ± 1.2,1.8 ± 0.3,2.0 ± 0.3,0.5 ± 0.2,0.1 ± 0.1,0.0 ± 0.1,0.1 ± 0.4,-0.2 ± 0.1,0.6 ± 0.1,0.6 ± 0.4,-0.3 ± 0.2,BRD7 and BRD9 as prominent off-targets,1.371,6.58E+06,0.996 ± 0.029,-8.99,ITC ΔH (BRD4 BD1): -10.36 ± 0.501 kcal/mol; ITC ΔS (BRD4 BD1): -4.759 cal/mol·K; Kd (BRD4 BD1; [3]): 152 nM
Cn1cc(-c2ccc(C(=O)Nc3ccccc3N)nc2)c2cc[nH]c2c1=O [NB500],–,–,–,–,–,–,–,–,–,–,–,–,–,–,–,–,-1.832,2.18E+07,1.003 ± 0.022,-9.676,MYC mRNA levels [1]: strongest effect; TP63 mRNA levels [2]: strongest effect; fold increased binding affinity to BRD4 BD1 in ITC vs NB462 (BRD4 BD1): 3 fold; ITC ΔH (BRD4 BD1): -7.844 ± 0.360 kcal/mol; ITC ΔS (BRD4 BD1): 6.358 cal/mol·K; Kd (BRD4 BD1; [3]): 45.8 nM; Kd (BRD4 BD1; read-out: ITC Kd BRD4 BD1): 46 nM
Cn1cc(-c2ccc(C(=O)Nc3cc(-c4ccccc4)ccc3N)cc2)c2cc[nH]c2c1=O [NB503],-1.3 ± 0.1,1.4 ± 0.1,3.6 ± 0.4,1.1 ± 0.2,1.0 ± 0.8,1.4 ± 0.3,1.0 ± 0.3,0.0 ± 0.0,1.0 ± 0.6,1.1 ± 0.2,1.9 ± 0.2,0.4 ± 0.1,0.7 ± 0.5,0.0 ± 0.2,0.0 ± 0.0,high selectivity for BET bromodomains,–,–,–,–,MYC mRNA levels [1]: strongest effect; TP63 mRNA levels [2]: strongest effect
